The text below walks through data of patent US9993478B2, “1-pyrazolyl-3-(4-((2-anilinopyrimidin-4-yl) oxy) napththalen-1-yl) ureas as P38 MAP knase inhibitors” (Respivert Ltd., priority 2011, dated 2018).

The subject of this data set is d-U937 cells. The data set can be described thus: Cell viability: MTT assay. The following applies: 1 μg/mL. In kind it is cell-based, human. The procedure:
Differentiated U937 cells were pre-incubated with each test compound (final concentration 1 μg/mL or 10 μg/mL in 200 μL media indicated below) under two protocols: the first for 4 hr in 5% FCS RPMI1640 media and the second in 10% FCS RPMI1640 media for 24 h. The supernatant was replaced with new media (200 μL) and MTT stock solution (10 μL, 5 mg/mL) was added to each well. After incubation for 1 hr the media were removed, DMSO (200 μL) was added to each well and the plates were shaken lightly for 1 hr prior to reading the absorbance at 550 nm. The percentage loss of cell viability was calculated for each well relative to vehicle (0.5% DMSO) treatment. Consequently an apparent increase in cell viability for drug treatment relative to vehicle is tabulated as a negative percentage.
(In general: Tetrazolium assays rely on reduction of a dye to a coloured formazan, in cell work by metabolically active cells.)

As to `Cc1ccc(-n2nc(C(C)(C)C)cc2NC(=O)Nc2ccc(Oc3ccnc(Nc4ccc(O)c(F)c4)n3)c3ccccc23)cc1` [Example 29, 1-(3-(tert-butyl)-1-(p-tolyl)-1H-pyrazol-5-yl)-3-(4-((2-((3-fluoro-4-hydroxyphenyl)amino)pyrimidin-4-yl)oxy)naphthalen-1-yl)urea], the “MTT Assay Cell viability at time point in d-U937 Cells 4 h” value was “+ve (−ve and +ve indicate the value is below and above respectively, the no significant effect threshold defined as 30% inhibition at 1 μg/mL at the time point indicated)”; the “MTT Assay Cell viability at time point in d-U937 Cells 24 h” value is “−ve (−ve and +ve indicate the value is below and above respectively, the no significant effect threshold defined as 30% inhibition at 1 μg/mL at the time point indicated)”.
On to `Cc1ccc(-n2nc(C(C)(C)C)cc2NC(=O)Nc2ccc(Oc3ccnc(Nc4ccccc4F)n3)c3ccccc23)cc1` [Example 4, 1-(3-(tert-butyl)-1-(p-tolyl)-1H-pyrazol-5-yl)-3-(4-((2-((2-fluorophenyl)amino)pyrimidin-4-yl)oxy)naphthalen-1-yl)urea], for which the “MTT Assay Cell viability at time point in d-U937 Cells 4 h” value was “−ve (−ve and +ve indicate the value is below and above respectively, the no significant effect threshold defined as 30% inhibition at 1 μg/mL at the time point indicated)”; the “MTT Assay Cell viability at time point in d-U937 Cells 24 h” value was “−ve (−ve and +ve indicate the value is below and above respectively, the no significant effect threshold defined as 30% inhibition at 1 μg/mL at the time point indicated)”.
Regarding `COc1ccc(Nc2nccc(Oc3ccc(NC(=O)Nc4cc(C(C)(C)C)nn4-c4ccc(C)cc4)c4ccccc34)n2)cc1OC` [Example 27, 1-(3-(tert-butyl)-1-(p-tolyl)-1H-pyrazol-5-yl)-3-(4-((2-((3,4-dimethoxyphenyl)amino)pyrimidin-4-yl)oxy)naphthalen-1-yl)urea], the “MTT Assay Cell viability at time point in d-U937 Cells 4 h” value was “+ve (−ve and +ve indicate the value is below and above respectively, the no significant effect threshold defined as 30% inhibition at 1 μg/mL at the time point indicated)”; the “MTT Assay Cell viability at time point in d-U937 Cells 24 h” value is “−ve (−ve and +ve indicate the value is below and above respectively, the no significant effect threshold defined as 30% inhibition at 1 μg/mL at the time point indicated)”.
Regarding `Cc1ccc(-n2nc(C(C)(C)C)cc2NC(=O)Nc2ccc(Oc3ccnc(Nc4ccccc4Cl)n3)c3ccccc23)cc1` [Example 19, 1-(3-(tert-butyl)-1-(p-tolyl)-1H-pyrazol-5-yl)-3-(4-((2-((2-chlorophenyl)amino)pyrimidin-4-yl)oxy)naphthalen-1-yl)urea], the “MTT Assay Cell viability at time point in d-U937 Cells 4 h” value was “−ve (−ve and +ve indicate the value is below and above respectively, the no significant effect threshold defined as 30% inhibition at 1 μg/mL at the time point indicated)”; the “MTT Assay Cell viability at time point in d-U937 Cells 24 h” value is “−ve (−ve and +ve indicate the value is below and above respectively, the no significant effect threshold defined as 30% inhibition at 1 μg/mL at the time point indicated)”.
Regarding `COc1cccc(Nc2nccc(Oc3ccc(NC(=O)Nc4cc(C(C)(C)C)nn4-c4ccc(C)cc4)c4ccccc34)n2)c1` [Example 14, 1-(3-(tert-butyl)-1-(p-tolyl)-1H-pyrazol-5-yl)-3-(4-((2-((3-methoxyphenyl)amino)pyrimidin-4-yl)oxy)naphthalen-1-yl)urea], the “MTT Assay Cell viability at time point in d-U937 Cells 4 h” value was “−ve (−ve and +ve indicate the value is below and above respectively, the no significant effect threshold defined as 30% inhibition at 1 μg/mL at the time point indicated)”; the “MTT Assay Cell viability at time point in d-U937 Cells 24 h” value is “−ve (−ve and +ve indicate the value is below and above respectively, the no significant effect threshold defined as 30% inhibition at 1 μg/mL at the time point indicated)”.
For the compound `Cc1ccc(-n2nc(C(C)(C)C)cc2NC(=O)Nc2ccc(Oc3ccnc(Nc4ccc(Cl)cc4C)n3)c3ccccc23)cc1` [Example 18, 1-(3-(tert-butyl)-1-(p-tolyl)-1H-pyrazol-5-yl)-3-(4-((2-((4-chloro-2-methylphenyl)amino)pyrimidin-4-yl)oxy)naphthalen-1-yl)urea], the “MTT Assay Cell viability at time point in d-U937 Cells 4 h” value was “−ve (−ve and +ve indicate the value is below and above respectively, the no significant effect threshold defined as 30% inhibition at 1 μg/mL at the time point indicated)”; the “MTT Assay Cell viability at time point in d-U937 Cells 24 h” value was “−ve (−ve and +ve indicate the value is below and above respectively, the no significant effect threshold defined as 30% inhibition at 1 μg/mL at the time point indicated)”.
With `Cc1ccc(-n2nc(C(C)(C)C)cc2NC(=O)Nc2ccc(Oc3ccnc(Nc4cc(C)ccc4C)n3)c3ccccc23)cc1` [Example 10, 1-(3-(tert-butyl)-1-(p-tolyl)-1H-pyrazol-5-yl)-3-(4-((2-((2,5-dimethylphenyl)amino)pyrimidin-4-yl)oxy)naphthalen-1-yl)urea], the “MTT Assay Cell viability at time point in d-U937 Cells 4 h” value was “−ve (−ve and +ve indicate the value is below and above respectively, the no significant effect threshold defined as 30% inhibition at 1 μg/mL at the time point indicated)”; the “MTT Assay Cell viability at time point in d-U937 Cells 24 h” value is “−ve (−ve and +ve indicate the value is below and above respectively, the no significant effect threshold defined as 30% inhibition at 1 μg/mL at the time point indicated)”.
In the case of `Cc1ccc(-n2nc(C(C)(C)C)cc2NC(=O)Nc2ccc(Oc3ccnc(Nc4ccc(F)cc4)n3)c3ccccc23)cc1` [Example 23, 1-(3-(tert-butyl)-1-(p-tolyl)-1H-pyrazol-5-yl)-3-(4-((2-((4-fluorophenyl)amino)pyrimidin-4-yl)oxy)naphthalen-1-yl)urea], the “MTT Assay Cell viability at time point in d-U937 Cells 4 h” value was “−ve (−ve and +ve indicate the value is below and above respectively, the no significant effect threshold defined as 30% inhibition at 1 μg/mL at the time point indicated)”; the “MTT Assay Cell viability at time point in d-U937 Cells 24 h” value was “−ve (−ve and +ve indicate the value is below and above respectively, the no significant effect threshold defined as 30% inhibition at 1 μg/mL at the time point indicated)”.
With `Cc1ccc(-n2nc(C(C)(C)C)cc2NC(=O)Nc2ccc(Oc3ccnc(Nc4ccc(O)cc4)n3)c3ccccc23)cc1` [Example 9, 1-(3-(tert-butyl)-1-(p-tolyl)-1H-pyrazol-5-yl)-3-(4-((2-((4-hydroxyphenyl)amino)pyrimidin-4-yl)oxy)naphthalen-1-yl)urea], the “MTT Assay Cell viability at time point in d-U937 Cells 4 h” value is “−ve (−ve and +ve indicate the value is below and above respectively, the no significant effect threshold defined as 30% inhibition at 1 μg/mL at the time point indicated)”; the “MTT Assay Cell viability at time point in d-U937 Cells 24 h” value was “−ve (−ve and +ve indicate the value is below and above respectively, the no significant effect threshold defined as 30% inhibition at 1 μg/mL at the time point indicated)”.
For the compound `Cc1ccc(-n2nc(C(C)(C)C)cc2NC(=O)Nc2ccc(Oc3ccnc(Nc4cccc(C)c4)n3)c3ccccc23)cc1` [Example 12, 1-(3-(tert-butyl)-1-(p-tolyl)-1H-pyrazol-5-yl)-3-(4-((2-(m-tolylamino)pyrimidin-4-yl)oxy)naphthalen-1-yl)urea], the “MTT Assay Cell viability at time point in d-U937 Cells 4 h” value was “−ve (−ve and +ve indicate the value is below and above respectively, the no significant effect threshold defined as 30% inhibition at 1 μg/mL at the time point indicated)”; the “MTT Assay Cell viability at time point in d-U937 Cells 24 h” value is “−ve (−ve and +ve indicate the value is below and above respectively, the no significant effect threshold defined as 30% inhibition at 1 μg/mL at the time point indicated)”.
For the compound `COc1ccccc1Nc1nccc(Oc2ccc(NC(=O)Nc3cc(C(C)(C)C)nn3-c3ccc(C)cc3)c3ccccc23)n1` [Example 5, 1-(3-(tert-butyl)-1-(p-tolyl)-1H-pyrazol-5-yl)-3-(4-((2-((2-methoxyphenyl)amino)pyrimidin-4-yl)oxy)naphthalen-1-yl)urea], the “MTT Assay Cell viability at time point in d-U937 Cells 4 h” value was “−ve (−ve and +ve indicate the value is below and above respectively, the no significant effect threshold defined as 30% inhibition at 1 μg/mL at the time point indicated)”; the “MTT Assay Cell viability at time point in d-U937 Cells 24 h” value is “−ve (−ve and +ve indicate the value is below and above respectively, the no significant effect threshold defined as 30% inhibition at 1 μg/mL at the time point indicated)”.
Turning to `Cc1ccc(-n2nc(C(C)(C)C)cc2NC(=O)Nc2ccc(Oc3ccnc(Nc4ccccc4C(C)C)n3)c3ccccc23)cc1` [Example 20, 1-(3-(tert-butyl)-1-(p-tolyl)-1H-pyrazol-5-yl)-3-(4-((2-((2-isopropylphenyl)amino)pyrimidin-4-yl)oxy)naphthalen-1-yl)urea], the “MTT Assay Cell viability at time point in d-U937 Cells 4 h” value is “−ve (−ve and +ve indicate the value is below and above respectively, the no significant effect threshold defined as 30% inhibition at 1 μg/mL at the time point indicated)”; the “MTT Assay Cell viability at time point in d-U937 Cells 24 h” value was “−ve (−ve and +ve indicate the value is below and above respectively, the no significant effect threshold defined as 30% inhibition at 1 μg/mL at the time point indicated)”.
With `COc1ccc(-n2nc(C(C)(C)C)cc2NC(=O)Nc2ccc(Oc3ccnc(Nc4ccc(O)cc4)n3)c3ccccc23)cc1` [Example 33, 1-(3-(tert-butyl)-1-(4-methoxyphenyl)-1H-pyrazol-5-yl)-3-(4-((2-((4-hydroxyphenyl)amino)pyrimidin-4-yl)oxy)naphthalen-1-yl)urea], the “MTT Assay Cell viability at time point in d-U937 Cells 4 h” value is “−ve (−ve and +ve indicate the value is below and above respectively, the no significant effect threshold defined as 30% inhibition at 1 μg/mL at the time point indicated)”; the “MTT Assay Cell viability at time point in d-U937 Cells 24 h” value was “−ve (−ve and +ve indicate the value is below and above respectively, the no significant effect threshold defined as 30% inhibition at 1 μg/mL at the time point indicated)”.
